Like-named read-outs stand apart in the source and are kept apart here.
Tests used:
[1] = target: T1, hGIPR (Homo sapiens, UniProt P48546); assay: hGIPR CreLuc assay in 0.5% and 100% plasma (CHO CRE-luciferase reporter cells); type: cell-based; conditions: 0.5% human plasma, read-out: hGIPR 0.5% hP
T1 construct: expressed in transfected cells; host or cells: CHO CRE-luciferase reporter cells
T1 sequence (P48546 22-466): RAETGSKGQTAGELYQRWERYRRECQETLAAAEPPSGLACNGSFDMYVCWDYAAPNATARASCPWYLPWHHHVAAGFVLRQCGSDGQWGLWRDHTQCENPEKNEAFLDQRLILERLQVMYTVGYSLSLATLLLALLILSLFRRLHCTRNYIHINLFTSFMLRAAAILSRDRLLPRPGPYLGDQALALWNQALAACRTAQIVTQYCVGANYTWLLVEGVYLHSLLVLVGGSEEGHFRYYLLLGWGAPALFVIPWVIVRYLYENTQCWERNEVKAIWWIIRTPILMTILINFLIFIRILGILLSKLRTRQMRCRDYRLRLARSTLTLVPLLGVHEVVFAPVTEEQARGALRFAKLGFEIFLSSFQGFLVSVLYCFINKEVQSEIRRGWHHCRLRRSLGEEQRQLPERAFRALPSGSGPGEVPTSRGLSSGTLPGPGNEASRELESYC

[2] = Solubility in 0.1 M phosphate buffer at pH 7; type: physicochemical; conditions: 0.1 M phosphate buffer at pH 7, 10 mg/mL final peptide concentration, shaking 2 hours at room temperature, peptides as TFA-salts; measured sample pH 6.5-7.0
[3] = target: T2, hGLP1R (Homo sapiens, UniProt P43220); assay: hGLP1R CreLuc assay in 0.5% and 100% plasma (HEK-293 CRE-luciferase reporter cells); type: cell-based; conditions: HEK-293 reporter cells
T2 construct: expressed in transfected cells; host or cells: HEK-293 CRE-luciferase reporter cells
Excerpt: CHO and HEK-293 recombinant cell lines express a luciferase reporter gene under control of the CAMP responsive element (CRE). As a second recombinant protein the GLP-1 and NPY2 receptors were expressed in the reporter gene HEK cells, and the GIP receptor was expressed in the reporter gene CHO cells, respectively. Stimulation of these recombinant cells with an agonist leads to an increase of intracellular CAMP levels. In the presence of CAMP, the transcription factor CRE binding protein (CREB) binds to the CRE and to the CREB binding protein (CBP), which leads to transcription of the luciferase reporter gene. Peptides upon serial-dilution in 100% DMSO were transferred into 384-well assay plates with 5 μl pre-dispensed assay buffer (1×HBSS, 20 mM HEPES, pH7.4 supplemented with 0.5% human plasma) using acoustic dispensing on a Labcyte ECHO. Cryo-preserved transgenic reporter gene cells were thawed in assay buffer. 20 μl (10.000 cells/well) were added to the plate with the peptides and incubated for 4 hours at 37° C. in a humidified incubator. Following incubation, assay plates are equilibrated to room temperature, followed by addition of 25 μl of Bright-Glo™ Luciferase reagent, incubation at room temperature for 10 minutes and analysis of luminescence (Envision Reader). […] EC50 values were calculated by non-linear regression using sigmoid concentration-response with variable slope.
The same assays were run in the presence of 100% plasma with no additional buffer constituents.

[4] = 0.5% human plasma, read-out: hGLP1R 0.5% hP
[5] = 100% human plasma, read-out: hGLP1R 100% hP

T2 sequence (P43220 24-463): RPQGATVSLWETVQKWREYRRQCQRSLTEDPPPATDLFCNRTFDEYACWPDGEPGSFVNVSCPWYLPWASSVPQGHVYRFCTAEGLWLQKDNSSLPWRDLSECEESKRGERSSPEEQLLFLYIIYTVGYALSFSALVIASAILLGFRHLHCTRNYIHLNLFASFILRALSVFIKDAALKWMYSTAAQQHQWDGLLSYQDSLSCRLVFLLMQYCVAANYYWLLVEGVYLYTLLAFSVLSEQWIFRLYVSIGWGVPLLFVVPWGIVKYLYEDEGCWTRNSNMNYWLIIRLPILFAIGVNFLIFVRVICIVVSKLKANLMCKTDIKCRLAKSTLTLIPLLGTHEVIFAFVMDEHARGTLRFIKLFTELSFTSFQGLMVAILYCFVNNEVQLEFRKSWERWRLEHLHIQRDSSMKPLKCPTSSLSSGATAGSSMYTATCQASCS

SMILES | EC50 [1] | solubility at 2 h [2] | EC50 [3, 4] | EC50 [3, 5]
CC[C@H](C)[C@H](NC(=O)[C@H](CC(C)C)NC(=O)[C@H](Cc1c[nH]cn1)NC(=O)[C@H](CCCNC(=N)N)NC(=O)[C@@H](NC(=O)[C@H](Cc1ccccc1)NC(=O)[C@H](C)NC(=O)C(C)(C)NC(=O)[C@H](CCC(N)=O)NC(=O)[C@H](C)NC(=O)[C@H](CCC(N)=O)NC(=O)[C@H](CCCCN)NC(=O)[C@H](CCC(=O)O)NC(=O)[C@H](CC(C)C)NC(=O)C(C)(C)NC(=O)[C@@H](NC(=O)[C@H](CO)NC(=O)[C@H](Cc1ccc(O)cc1)NC(=O)[C@H](CC(=O)O)NC(=O)[C@H](CO)NC(=O)[C@@H](NC(=O)[C@H](Cc1ccccc1)NC(=O)[C@@H](NC(=O)CNC(=O)[C@H](CCC(=O)O)NC(=O)C(C)(C)NC(=O)[C@@H](N)Cc1ccc(O)cc1)[C@@H](C)O)[C@@H](C)O)[C@@H](C)CC)C(C)C)C(=O)N[C@@H](CC(N)=O)C(=O)N[C@@H](CCCCNC(=O)CC[C@H](NC(=O)CC[C@H](NC(=O)CC[C@H](NC(=O)CC[C@H](NC(=O)CC[C@H](NC(=O)CC[C@H](NC(=O)CCCCCCCCCCCCCCCCC(=O)O)C(=O)O)C(=O)O)C(=O)O)C(=O)O)C(=O)O)C(=O)O)C(=O)N[C@@H](CC(C)C)C(=O)N[C@H](C(=O)N[C@@H](CCCNC(=N)N)C(=O)N[C@@H](CCC(N)=O)C(=O)N[C@@H](CCCNC(=N)N)C(=O)N[C@@H](Cc1ccc(O)cc1)C(N)=O)[C@@H](C)O [Compound 12, Y-Aib-E-G-T-F-T-S-D-Y-S-I-Aib-L-E-K-Q-A-Q-Aib-A-F-V-R-H-L-I-N-K(1,3)-L-T-R-Q-R-Y-NH2.C18DA-gGlu-gGlu-gGlu-gGlu-gGlu-gGlu(1,2)] | 0.8 nM | 5000 µg/mL | 1.8 nM | –
CC[C@H](C)[C@H](NC(=O)[C@H](CC(C)C)NC(=O)[C@H](Cc1c[nH]cn1)NC(=O)[C@H](CCCNC(=N)N)NC(=O)[C@@H](NC(=O)[C@H](Cc1ccccc1)NC(=O)[C@H](C)NC(=O)C(C)(C)NC(=O)[C@H](CCC(N)=O)NC(=O)[C@H](C)NC(=O)[C@H](CCC(N)=O)NC(=O)[C@H](CCCCN)NC(=O)[C@H](CCC(=O)O)NC(=O)[C@H](CC(C)C)NC(=O)C(C)(C)NC(=O)[C@@H](NC(=O)[C@H](CO)NC(=O)[C@H](Cc1ccc(O)cc1)NC(=O)[C@H](CC(=O)O)NC(=O)[C@H](CO)NC(=O)[C@@H](NC(=O)[C@H](Cc1ccccc1)NC(=O)[C@@H](NC(=O)CNC(=O)[C@H](CCC(=O)O)NC(=O)C(C)(C)NC(=O)[C@@H](N)Cc1ccc(O)cc1)[C@@H](C)O)[C@@H](C)O)[C@@H](C)CC)C(C)C)C(=O)N[C@@H](CC(N)=O)C(=O)N[C@@H](CCCCNC(=O)CCCCCNC(=O)CC[C@H](NC(=O)CC[C@H](NC(=O)CC[C@H](NC(=O)CC[C@H](NC(=O)CC[C@H](NC(=O)CCCCCCCCCCCCCCCCC(=O)O)C(=O)O)C(=O)O)C(=O)O)C(=O)O)C(=O)O)C(=O)NC(C)(C)C(=O)N[C@H](C(=O)N[C@@H](CCCNC(=N)N)C(=O)N[C@@H](CCC(N)=O)C(=O)N[C@@H](CCCNC(=N)N)C(=O)N[C@@H](Cc1ccc(O)cc1)C(N)=O)[C@@H](C)O [Compound 13, Y-Aib-E-G-T-F-T-S-D-Y-S-I-Aib-L-E-K-Q-A-Q-Aib-A-F-V-R-H-L-I-N-K(1,3)-Aib-T-R-Q-R-Y-NH2.C18DA-gGlu-gGlu-gGlu-gGlu-gGlu-AHX(1,2)] | 0.1 nM | 4300 µg/mL | 0.4 nM | –
CC[C@H](C)[C@H](NC(=O)[C@H](CC(C)C)NC(=O)[C@H](Cc1c[nH]cn1)NC(=O)[C@H](CCCNC(=N)N)NC(=O)[C@@H](NC(=O)[C@H](Cc1ccccc1)NC(=O)[C@H](C)NC(=O)C(C)(C)NC(=O)[C@H](CCC(N)=O)NC(=O)[C@H](C)NC(=O)[C@H](CCC(N)=O)NC(=O)[C@H](CCC(N)=O)NC(=O)[C@H](CCC(=O)O)NC(=O)[C@H](CC(C)C)NC(=O)C(C)(C)NC(=O)[C@@H](NC(=O)[C@H](CO)NC(=O)[C@H](Cc1ccc(O)cc1)NC(=O)[C@H](CC(=O)O)NC(=O)[C@H](CO)NC(=O)[C@@H](NC(=O)[C@H](Cc1ccccc1)NC(=O)[C@@H](NC(=O)CNC(=O)[C@H](CCC(=O)O)NC(=O)C(C)(C)NC(=O)[C@@H](N)Cc1ccc(O)cc1)[C@@H](C)O)[C@@H](C)O)[C@@H](C)CC)C(C)C)C(=O)N[C@@H](CC(N)=O)C(=O)N[C@@H](CCCCNC(=O)[C@@H](N)CCCCNC(=O)CC[C@H](NC(=O)CC[C@H](NC(=O)CC[C@H](NC(=O)CC[C@H](NC(=O)CC[C@H](NC(=O)CC[C@H](NC(=O)CCCCCCCCCCCCCCCCC(=O)O)C(=O)O)C(=O)O)C(=O)O)C(=O)O)C(=O)O)C(=O)O)C(=O)NC(C)(C)C(=O)N[C@H](C(=O)N[C@@H](CCCNC(=N)N)C(=O)N[C@@H](CCC(N)=O)C(=O)N[C@@H](CCCNC(=N)N)C(=O)N[C@@H](Cc1ccc(O)cc1)C(N)=O)[C@@H](C)O [Compound 23, Y-Aib-E-G-T-F-T-S-D-Y-S-I-Aib-L-E-Q-Q-A-Q-Aib-A-F-V-R-H-L-I-N-K(1,3)-Aib-T-R-Q-R-Y-NH2.C18DA-gGlu-gGlu-gGlu-gGlu-gGlu-gGlu-eLys(1,2)] | 0.2 nM | 9400 µg/mL | 0.5 nM | –
CC[C@H](C)[C@H](NC(=O)[C@H](CC(C)C)NC(=O)[C@H](Cc1c[nH]cn1)NC(=O)[C@H](CCCNC(=N)N)NC(=O)[C@@H](NC(=O)[C@H](Cc1ccccc1)NC(=O)[C@H](C)NC(=O)C(C)(C)NC(=O)[C@H](CCC(N)=O)NC(=O)[C@H](C)NC(=O)[C@H](CCC(=O)O)NC(=O)[C@H](CCC(=O)O)NC(=O)[C@H](CCC(=O)O)NC(=O)[C@H](CC(C)C)NC(=O)C(C)(C)NC(=O)[C@@H](NC(=O)[C@H](CO)NC(=O)[C@H](Cc1ccc(O)cc1)NC(=O)[C@H](CC(=O)O)NC(=O)[C@H](CO)NC(=O)[C@@H](NC(=O)[C@H](Cc1ccccc1)NC(=O)[C@@H](NC(=O)CNC(=O)[C@H](CCC(=O)O)NC(=O)C(C)(C)NC(=O)[C@@H](N)Cc1ccc(O)cc1)[C@@H](C)O)[C@@H](C)O)[C@@H](C)CC)C(C)C)C(=O)N[C@@H](CC(N)=O)C(=O)N[C@@H](CCCCNC(=O)CC[C@H](NC(=O)CC[C@H](NC(=O)CC[C@H](NC(=O)CC[C@H](NC(=O)CCCCCCCCCCCCCCCCC(=O)O)C(=O)O)C(=O)O)C(=O)O)C(=O)O)C(=O)NC(C)(C)C(=O)N[C@H](C(=O)N[C@@H](CCCNC(=N)N)C(=O)N[C@@H](CCC(N)=O)C(=O)N[C@@H](CCCNC(=N)N)C(=O)N[C@@H](Cc1ccc(O)cc1)C(N)=O)[C@@H](C)O [Compound 25, Y-Aib-E-G-T-F-T-S-D-Y-S-I-Aib-L-E-E-E-A-Q-Aib-A-F-V-R-H-L-I-N-K(1,3)-Aib-T-R-Q-R-Y-NH2.C18DA-gGlu-gGlu-gGlu-gGlu(1,2)] | 0.4 nM | 4800 µg/mL | 0.7 nM | 2 nM
CC[C@H](C)[C@H](NC(=O)[C@H](CC(C)C)NC(=O)[C@H](Cc1c[nH]cn1)NC(=O)[C@H](CCCNC(=N)N)NC(=O)[C@@H](NC(=O)[C@H](Cc1ccccc1)NC(=O)[C@H](CCC(=O)O)NC(=O)C(C)(C)NC(=O)[C@H](CCC(N)=O)NC(=O)[C@H](C)NC(=O)[C@H](CCC(N)=O)NC(=O)[C@H](CCCCN)NC(=O)[C@H](CCC(=O)O)NC(=O)[C@H](CC(C)C)NC(=O)C(C)(C)NC(=O)[C@@H](NC(=O)[C@H](CO)NC(=O)[C@H](Cc1ccc(O)cc1)NC(=O)[C@H](CC(=O)O)NC(=O)[C@H](CO)NC(=O)[C@@H](NC(=O)[C@H](Cc1ccccc1)NC(=O)[C@@H](NC(=O)CNC(=O)[C@H](CCC(=O)O)NC(=O)C(C)(C)NC(=O)[C@@H](N)Cc1ccc(O)cc1)[C@@H](C)O)[C@@H](C)O)[C@@H](C)CC)C(C)C)C(=O)N[C@@H](CC(N)=O)C(=O)N[C@@H](CCCCNC(=O)[C@@H](N)CCCCNC(=O)CC[C@H](NC(=O)CC[C@H](NC(=O)CC[C@H](NC(=O)CC[C@H](NC(=O)CC[C@H](NC(=O)CC[C@H](NC(=O)CC[C@H](NC(=O)CCCCCCCCCCCCCCCCC(=O)O)C(=O)O)C(=O)O)C(=O)O)C(=O)O)C(=O)O)C(=O)O)C(=O)O)C(=O)NC(C)(C)C(=O)N[C@H](C(=O)N[C@@H](CCCNC(=N)N)C(=O)N[C@@H](CCC(N)=O)C(=O)N[C@@H](CCCNC(=N)N)C(=O)N[C@@H](Cc1ccc(O)cc1)C(N)=O)[C@@H](C)O [Compound 30, Y-Aib-E-G-T-F-T-S-D-Y-S-I-Aib-L-E-K-Q-A-Q-Aib-E-F-V-R-H-L-I-N-K(1,3)-Aib-T-R-Q-R-Y-NH2.C18DA-gGlu-gGlu-gGlu-gGlu-gGlu-gGlu-gGlu-eLys(1,2)] | 0.3 nM | 4700 µg/mL | – | 0.9 nM

— patent US20250382344A1, “Soluble GLP1/GIP/NPY2 Receptor Triple Agonists” (Boehringer Ingelheim International GmH, priority 2024, published 2025)
